Measured values reported in patent US5401490A, “Markers of tissue hypoxia” (priority 1989, dated 1995).
Read-outs that look alike come from different tables or passages of the source.

Assays:
[1] = Tissue distribution of radioactivity after intravenous injection; type: in vivo, BALB/C mice; conditions: mouse, iv, i.v.; for tissue uptake at 0.5 h: 0.50 h
From the text: Tables 1 and 2 show the percent of injected IAZG and IAZA respectively per gram of wet tissue for selected tissues excised from BALB/C mice bearing EMT-6 tumors. This tumor model is known to have a high hypoxic fraction (0.33) (16). […] Hepatobiliary excretion may play a role in blood clearance as evidenced by elevated liver radioactivity and the appearance of activity in the intestine. Some oxidative or reductive metabolites of the 2-nitroimidazoles may also become bound to liver tissue, as was postulated in an in vivo study with ^14 C-MISO (6). This supposition is supported by the persistence of liver radioactivity at longer time periods. […] At 8 and 24 hours thyroid levels of IAZG are 7.2 and 30.9% of the total body activity and for IAZA they are 7.9 and 33.8% of total body activity. EXAMPLE 11 TISSUE DISTRIBUTION AND EXCRETION Tumor propagation of EMT-6 tumors in BALB/C mice was accomplished by subcutaneous injection of a cell suspension (10^5 cells in 0.1 mL) as described previously (10). Tumors reached about 10 mm in diameter (≈0.5 g) at 12 to 14 days, at which time each animal was given a bolus intravenous injection of ^125 I-labelled test drug via the tail vein (40 to 60 kBq in 0.1 mL). At set time periods the animals were asphyxiated with CO2 and exsanguinated via cardiac puncture. Tissues were dissected, weighed wet into vials and counted for ^125 I-activity. Whole-body activity was determined by summation of total activity in tissues and in residual carcass, and blood activity was determined from the blood aliquot, assuming blood to be 6.5% of the total body weight. EXAMPLE 12 Male BALB/c mice (20-25 g) were inoculated subcutaneously in the left flank with a suspension of murine EMT-6 cells (10^5 cells in 0.1 mL) (14). After 12 to 14 days, when the tumors reached the desired size (8-10 mm diameter), each mouse received a single intravenous (iv) injection of ^125 I-IAZA (59 kBq in 0.1 mL). […] Heart, lung, liver, spleen, muscle, bone, thyroid, kidney, stomach, small intestine, tail, tumor and skin were removed upon necropsy, weighed and analyzed for ^125 I using a Beckman Model 8000 gamma scintillation counter. The remaining carcass mass was also weighed and radioassayed.

[2] = Blood clearance and whole body elimination of radioactivity; type: in vivo, BALB/C mice
From the text: Each data point represents the mean of 6 animals.
Tables 1 and 2 show the percent of injected IAZG and IAZA respectively per gram of wet tissue for selected tissues excised from BALB/C mice bearing EMT-6 tumors. This tumor model is known to have a high hypoxic fraction (0.33) (16). […] Hepatobiliary excretion may play a role in blood clearance as evidenced by elevated liver radioactivity and the appearance of activity in the intestine. Some oxidative or reductive metabolites of the 2-nitroimidazoles may also become bound to liver tissue, as was postulated in an in vivo study with ^14 C-MISO (6). This supposition is supported by the persistence of liver radioactivity at longer time periods. […] At 8 and 24 hours thyroid levels of IAZG are 7.2 and 30.9% of the total body activity and for IAZA they are 7.9 and 33.8% of total body activity.
EXAMPLE 11 TISSUE DISTRIBUTION AND EXCRETION
Tumor propagation of EMT-6 tumors in BALB/C mice was accomplished by subcutaneous injection of a cell suspension (10^5 cells in 0.1 mL) as described previously (10). Tumors reached about 10 mm in diameter (≈0.5 g) at 12 to 14 days, at which time each animal was given a bolus intravenous injection of ^125 I-labelled test drug via the tail vein (40 to 60 kBq in 0.1 mL). At set time periods the animals were asphyxiated with CO2 and exsanguinated via cardiac puncture. Tissues were dissected, weighed wet into vials and counted for ^125 I-activity. Whole-body activity was determined by summation of total activity in tissues and in residual carcass, and blood activity was determined from the blood aliquot, assuming blood to be 6.5% of the total body weight.

[3] = blood, read-out: Percent of Injected Dose per Gram, Blood
[4] = intestine, read-out: Percent of Injected Dose per Gram, Intestine
[5] = kidney, read-out: Percent of Injected Dose per Gram, Kidney
[6] = liver, read-out: Percent of Injected Dose per Gram, Liver
[7] = lung, read-out: Percent of Injected Dose per Gram, Lung
[8] = muscle, read-out: Percent of Injected Dose per Gram, Muscle
[9] = stomach, read-out: Percent of Injected Dose per Gram, Stomach
[10] = tumor, read-out: Percent of Injected Dose per Gram, Tumor

O=[N+]([O-])c1nccn1[C@@H]1O[C@H](CI)[C@H](O)[C@H](O)[C@H]1O [IAZG, 1-(6-iodo-6-deoxy-β-D-galactopyranosyl)-2-nitroimidazole]
tissue uptake at 0.25 h [1, 3]: 1.83 ± 0.17 %ID/g | tissue uptake at 0.5 h [1, 3]: 1.11 ± 0.16 %ID/g | tissue uptake at 1 h [1, 3]: 0.86 ± 0.26 %ID/g | tissue uptake at 2 h [1, 3]: 0.53 ± 0.1 %ID/g | tissue uptake at 4 h [1, 3]: 0.28 ± 0.07 %ID/g | tissue uptake at 8 h [1, 3]: 0.16 ± 0.03 %ID/g | tissue uptake at 24 h [1, 3]: 0.06 ± 0.02 %ID/g | tissue uptake at 0.25 h [1, 4]: 6.82 ± 5.2 %ID/g | tissue uptake at 0.5 h [1, 4]: 3.65 ± 1.36 %ID/g | tissue uptake at 1 h [1, 4]: 1.16 ± 0.25 %ID/g | tissue uptake at 2 h [1, 4]: 0.82 ± 0.45 %ID/g | tissue uptake at 4 h [1, 4]: 0.29 ± 0.07 %ID/g | tissue uptake at 8 h [1, 4]: 0.17 ± 0.08 %ID/g | tissue uptake at 24 h [1, 4]: 0.05 ± 0.02 %ID/g | tissue uptake at 0.25 h [1, 5]: 15.6 ± 1.15 %ID/g | tissue uptake at 0.5 h [1, 5]: 8.94 ± 1.2 %ID/g | tissue uptake at 1 h [1, 5]: 4.56 ± 1.41 %ID/g | tissue uptake at 2 h [1, 5]: 2.67 ± 0.51 %ID/g | tissue uptake at 4 h [1, 5]: 1.1 ± 0.29 %ID/g | tissue uptake at 8 h [1, 5]: 0.4 ± 0.02 %ID/g | tissue uptake at 24 h [1, 5]: 0.09 ± 0.03 %ID/g | tissue uptake at 0.25 h [1, 6]: 5.5 ± 0.79 %ID/g | tissue uptake at 0.5 h [1, 6]: 2.96 ± 0.49 %ID/g | tissue uptake at 1 h [1, 6]: 1.48 ± 0.24 %ID/g | tissue uptake at 2 h [1, 6]: 1.4 ± 0.56 %ID/g | tissue uptake at 4 h [1, 6]: 0.43 ± 0.12 %ID/g | tissue uptake at 8 h [1, 6]: 0.2 ± 0.02 %ID/g | tissue uptake at 24 h [1, 6]: 0.08 ± 0.02 %ID/g | tissue uptake at 0.25 h [1, 7]: 2.77 ± 0.44 %ID/g | tissue uptake at 0.5 h [1, 7]: 1.46 ± 0.24 %ID/g | tissue uptake at 1 h [1, 7]: 0.74 ± 0.12 %ID/g | tissue uptake at 2 h [1, 7]: 0.61 ± 0.17 %ID/g | tissue uptake at 4 h [1, 7]: 0.33 ± 0.09 %ID/g | tissue uptake at 8 h [1, 7]: 0.16 ± 0.02 %ID/g | tissue uptake at 24 h [1, 7]: 0.07 ± 0.01 %ID/g | tissue uptake at 0.25 h [1, 8]: 1.31 ± 0.21 %ID/g | tissue uptake at 0.5 h [1, 8]: 0.7 ± 0.18 %ID/g | tissue uptake at 1 h [1, 8]: 0.37 ± 0.19 %ID/g | tissue uptake at 2 h [1, 8]: 0.34 ± 0.2 %ID/g | tissue uptake at 4 h [1, 8]: 0.14 ± 0.03 %ID/g | tissue uptake at 8 h [1, 8]: 0.06 ± 0.02 %ID/g | tissue uptake at 24 h [1, 8]: 0.02 ± 0.01 %ID/g | tissue uptake at 0.25 h [1, 9]: 3.29 ± 1.07 %ID/g | tissue uptake at 0.5 h [1, 9]: 2.14 ± 1.01 %ID/g | tissue uptake at 1 h [1, 9]: 1.38 ± 0.42 %ID/g | tissue uptake at 2 h [1, 9]: 1.49 ± 1.12 %ID/g | tissue uptake at 4 h [1, 9]: 0.55 ± 0.3 %ID/g | tissue uptake at 8 h [1, 9]: 0.42 ± 0.35 %ID/g | tissue uptake at 24 h [1, 9]: 0.06 ± 0.04 %ID/g | tissue uptake at 0.25 h [1, 10]: 1.75 ± 0.46 %ID/g | tissue uptake at 0.5 h [1, 10]: 1.45 ± 0.24 %ID/g | tissue uptake at 1 h [1, 10]: 1.21 ± 0.21 %ID/g | tissue uptake at 2 h [1, 10]: 0.77 ± 0.17 %ID/g | tissue uptake at 4 h [1, 10]: 0.43 ± 0.09 %ID/g | tissue uptake at 8 h [1, 10]: 0.23 ± 0.09 %ID/g | tissue uptake at 24 h [1, 10]: 0.08 ± 0.01 %ID/g | initial clearance rates, comparison ([2]; blood and whole body, IAZG vs IAZA): greater for IAZG than IAZA | major route of excretion ([2]; high kidney radioactivity at short time periods): via the urine | blood clearance ([2]; i.v. bolus, ^125 I-labelled): initial rapid blood clearance | excretion of radioactivity from the body ([2]; i.v. bolus, ^125 I-labelled): rapid excretion of radioactivity from the body
